We go through eight compounds from ChEMBL document CHEMBL1909046, “DrugMatrix in vitro pharmacology data”.

Where a SMILES comes first, the peptide text is derived from it. Bridges are numbered along the chain shown (N, C = ends). [ ]: non-standard residue; d: D form. The star is where a group is joined. Threoninol(2S,3R) = C[C@@H](O)[C@H](CO)N*

The nature of assay [1]: DRUGMATRIX: ATPase, Na+/K+ enzyme inhibition (substrate: ATP). The note with it: Not Active = under 50% inhibition at 10 µM. Type of assay: tissue-based, Sus scrofa, Heart.
The nature of assay [2]: DRUGMATRIX: Sigma2 radioligand binding (ligand: [3H] Ifenprodil). Type of assay: cell membranes, Rattus norvegicus, Wistar, Brain, Membrane. The note with it: Not Active = under 50% inhibition at 10 µM.
The target in assay [3] is T1, Cholecystokinin receptor type A (Homo sapiens, UniProt P32238). Further: in other assays of this panel Not Active means under 50% inhibition at 10 µM.
T1 sequence (P32238 whole entry): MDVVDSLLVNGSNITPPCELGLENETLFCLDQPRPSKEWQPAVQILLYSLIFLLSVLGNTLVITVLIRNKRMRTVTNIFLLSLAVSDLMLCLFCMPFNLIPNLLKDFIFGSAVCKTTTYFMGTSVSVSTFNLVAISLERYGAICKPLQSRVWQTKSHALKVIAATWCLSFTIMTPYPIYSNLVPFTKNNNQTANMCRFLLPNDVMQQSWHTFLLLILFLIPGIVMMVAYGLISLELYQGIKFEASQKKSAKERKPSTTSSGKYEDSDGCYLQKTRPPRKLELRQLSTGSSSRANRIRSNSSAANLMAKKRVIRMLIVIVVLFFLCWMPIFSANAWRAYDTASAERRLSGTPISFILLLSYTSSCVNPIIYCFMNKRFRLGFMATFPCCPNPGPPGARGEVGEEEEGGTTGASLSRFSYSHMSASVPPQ
Type of assay: cell membranes, Membrane. The note with it: 1321-n1.

A short description of assay [4]: DRUGMATRIX: GABAA, Flunitrazepam, Central radioligand binding (ligand: [3H] Flunitrazepam). Type of assay: cell membranes, Rattus norvegicus, Wistar, Brain, Membrane. The note with it: Not Active = under 50% inhibition at 10 µM.
A short description of assay [5]: DRUGMATRIX: Glutamate, NMDA, Agonism radioligand binding (ligand: [3H] CGP-39653). The note with it: Not Active = under 50% inhibition at 10 µM. Type of assay: cell membranes, Rattus norvegicus, Wistar, Cerebral cortex, Membrane.
The target in the next assay is Glycine receptor (Rattus norvegicus, UniProt P22771+P24524+P07727+P20781). Type of assay: cell membranes, Wistar, Spinal cord, Membrane. Further: in other assays of this panel Not Active means under 50% inhibition at 10 µM.
In assay [6] the target is T2, Muscarinic acetylcholine receptor M2 (Homo sapiens, UniProt P08172). Further: in other assays of this panel Not Active means under 50% inhibition at 10 µM.
T2 sequence (P08172 whole entry): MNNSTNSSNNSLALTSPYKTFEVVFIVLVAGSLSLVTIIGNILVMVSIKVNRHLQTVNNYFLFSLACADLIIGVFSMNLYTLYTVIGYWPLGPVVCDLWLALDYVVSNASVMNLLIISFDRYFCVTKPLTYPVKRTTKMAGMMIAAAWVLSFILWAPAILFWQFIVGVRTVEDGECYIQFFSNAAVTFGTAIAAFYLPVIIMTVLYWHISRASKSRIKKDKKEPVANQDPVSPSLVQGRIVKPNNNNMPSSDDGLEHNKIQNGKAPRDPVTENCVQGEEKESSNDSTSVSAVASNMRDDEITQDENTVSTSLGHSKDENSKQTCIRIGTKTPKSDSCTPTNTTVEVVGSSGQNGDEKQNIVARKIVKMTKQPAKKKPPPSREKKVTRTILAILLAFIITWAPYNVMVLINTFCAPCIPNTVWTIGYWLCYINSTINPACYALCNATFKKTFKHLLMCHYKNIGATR
Type of assay: cell membranes, CHO-K1, Membrane. The note with it: cho-k1.

As for `COc1ccccc1C(=O)N1CCC(Cc2ccccc2)CC1`, the IC50 result (in assay [1]; in assay [2]; in assay [3]; in assay [4]; in assay [5]; against Glycine receptor) was “Not Active” in each case. The 50% inhibitory concentration (IC50) entry in assay [6] was “Not Active”. For the same compound, the inhibition constant (Ki) result in assay [1], in assay [2], in assay [4] and in assay [5] was “Not Active” throughout.

In the case of `Cc1ccccc1C(=O)N1CCC(Cc2ccccc2)CC1`, the half-inhibitory concentration (IC50) result (in assay [1]; in assay [2]; in assay [3]; in assay [4]; in assay [5]; against Glycine receptor) was “Not Active” in each case. Besides, the half-maximal inhibitory concentration (IC50) entry in assay [6] is “Not Active”. For the same compound, the inhibition constant (Ki) entry in assay [1], in assay [2], in assay [4] and in assay [5] was “Not Active” each time.

As to `O=C1CC[C@H](N2C(=O)c3ccccc3C2=O)C(=O)N1`, the 50% inhibitory concentration (IC50) result (in assay [1]; in assay [2]; in assay [3]; in assay [4]; in assay [5]; on Glycine receptor) was “Not Active” in each case. Moreover, the concentration for half-maximal inhibition (IC50) entry in assay [6] is listed as “Not Active”. In addition, the Ki result in assay [1], in assay [2], in assay [4] and in assay [5] was “Not Active” throughout.

On to `N=C(Nc1ccccc1)Nc1ccccc1`, for which the half-maximal inhibitory concentration (IC50) result is “Not Active” in assay [1]; 2.64 µM in assay [2] (read-out: IC50); “Not Active” in assay [3]; “Not Active” in assay [4]; “Not Active” in assay [5]; “Not Active” on Glycine receptor. Moreover, the IC50 entry in assay [6] is recorded as “Not Active”. The inhibitory constant (Ki) result in assay [1] was “Not Active”; in assay [2] (read-out: Ki) it was 1.62 µM; in assay [4], “Not Active”; in assay [5] it was “Not Active”.

Take `C[C@@H](O)[C@H](CO)NC(=O)[C@@H]1CSSC[C@H](NC(=O)[C@H](N)Cc2ccccc2)C(=O)N[C@@H](Cc2ccccc2)C(=O)N[C@H](Cc2c[nH]c3ccccc23)C(=O)N[C@@H](CCCCN)C(=O)N[C@@H]([C@@H](C)O)C(=O)N1` (H-[dF]CF[dW]KTC-{Threoninol(2S,3R)}; disulfide 2-7): the IC50 entry (in assay [1]; in assay [2]; in assay [3]; in assay [4]; in assay [5]; at Glycine receptor) was “Not Active” in each case. For the same compound, in assay [6], the IC50 result is listed as “Not Active”. For the same compound, the inhibition constant (Ki) result in assay [1], in assay [2], in assay [4] and in assay [5] was “Not Active” each time.

For `S=C=Nc1cccc2ccccc12` [1-NAPHTHYLISOTHIOCYANATE], the IC50 result (in assay [1]; in assay [2]; in assay [3]; in assay [4]; in assay [5]; on Glycine receptor) was “Not Active” each time. Further, the IC50 result in assay [6] is recorded as “Not Active”. In addition, the inhibitory constant (Ki) entry in assay [1], in assay [2], in assay [4] and in assay [5] was “Not Active” each time.

Regarding `C[C@](O)(CS(=O)(=O)c1ccc(F)cc1)C(=O)Nc1ccc(C#N)c(C(F)(F)F)c1` [(R)-BICALUTAMIDE], the IC50 result (in assay [1]; in assay [2]; in assay [3]; in assay [4]; in assay [5]; against Glycine receptor) was “Not Active” each time. Besides, the IC50 entry in assay [6] is “Not Active”. Moreover, the Ki entry in assay [1], in assay [2], in assay [4] and in assay [5] was “Not Active” each time.

`OC(CCN1CCCCC1)(c1ccccc1)C1CCCCC1` (configuration not stated) [TRIHEXYPHENIDYL]: the IC50 entry in assay [1] is “Not Active”; in assay [2] (read-out: IC50) it was 3.12 µM; in assay [3], “Not Active”; in assay [4], “Not Active”; in assay [5], “Not Active”; at Glycine receptor, “Not Active”. Also, the inhibitory constant (Ki) result in assay [1] is “Not Active”; in assay [2] (read-out: Ki), 1.92 µM; in assay [4], “Not Active”; in assay [5] it was “Not Active”.
